Data from PubChem BioAssay (NCI).
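Five concentrations, 48 hours, 96-well plates. The concentration for full growth arrest is given as TGI.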

Legend:
Test in all cases: growth of human tumour cells (NCI), 48 h
MDA-N = tested on: MDA-N
OVCAR-3 ovarian = tested on: OVCAR-3 ovarian
ACHN renal = tested on: ACHN renal
SF-539 CNS = tested on: SF-539 CNS
SNB-19 CNS = tested on: SNB-19 CNS
EKVX NSCLC = tested on: EKVX NSCLC
SK-MEL-5 melanoma = tested on: SK-MEL-5 melanoma
PC-3 prostate = tested on: PC-3 prostate
SK-MEL-28 melanoma = tested on: SK-MEL-28 melanoma
MDA-MB-435 = tested on: MDA-MB-435
SR leukemia = tested on: SR leukemia
LOX IMVI melanoma = tested on: LOX IMVI melanoma
HS 578T breast = tested on: HS 578T breast
MDA-MB-231 breast = tested on: MDA-MB-231 breast
K-562 leukemia = tested on: K-562 leukemia
TK-10 renal = tested on: TK-10 renal

Row | SMILES | TGI (MDA-N) | TGI (OVCAR-3 ovarian) | TGI (ACHN renal) | TGI (SF-539 CNS) | TGI (SNB-19 CNS) | TGI (EKVX NSCLC) | TGI (SK-MEL-5 melanoma) | TGI (PC-3 prostate) | TGI (SK-MEL-28 melanoma) | TGI (MDA-MB-435) | TGI (SR leukemia) | TGI (LOX IMVI melanoma) | TGI (HS 578T breast) | TGI (MDA-MB-231 breast) | TGI (K-562 leukemia) | TGI (TK-10 renal)
1 | COC(=O)/C(=C\c1cn(C(C)=O)c2ccccc12)P(=O)(OC)OC | 32.4 µM | 32.4 µM | 25.4 µM | 38.7 µM | 32 µM | 38 µM | 26.5 µM | 39.8 µM | 55.1 µM | 64.7 µM | > 100 µM | 20.3 µM | > 100 µM | 24.1 µM | > 100 µM | 36 µM
2 | CN(C)/C=C/c1nnnn1-c1ccc(I)cc1 | 74.2 µM | 54.5 µM | 63.1 µM | 42.5 µM | 59.2 µM | 51.3 µM | 33 µM | 46.2 µM | 65.7 µM | 60.7 µM | 41.6 µM | 41.1 µM | 45.2 µM | 40.9 µM | 44.5 µM | 87.1 µM
3 | CCOC(=O)c1nc2ccccc2nc1Oc1ccc(OC)cc1 | > 100 µM | > 100 µM | > 100 µM | > 100 µM | > 100 µM | > 100 µM | > 100 µM | > 100 µM | > 100 µM | > 100 µM | > 100 µM | > 100 µM | > 100 µM | > 100 µM | > 100 µM | > 100 µM
4 | CC(=O)OC[C@@H](OC(C)=O)[C@@H](OC(C)=O)[C@H]1OC[C@@H]2C[C@H]([C@H]1OC(C)=O)N(Cc1ccccc1)O2 | > 100 µM | > 100 µM | > 100 µM | > 100 µM | > 100 µM | > 100 µM | > 100 µM | > 100 µM | > 100 µM | > 100 µM | > 100 µM | > 100 µM | > 100 µM | > 100 µM | > 100 µM | > 100 µM
5 | NS(=O)(=O)c1nnc(/N=C(/CCC(=O)O)C(=O)O)s1 | > 100 µM | > 100 µM | > 100 µM | > 100 µM | > 100 µM | > 100 µM | > 100 µM | > 100 µM | > 100 µM | > 100 µM | > 100 µM | > 100 µM | > 100 µM | > 100 µM | > 100 µM | > 100 µM
6 | CCOC(=O)C(=CNC(=S)Nc1c(CC)cccc1CC)C(=O)OCC | > 100 µM | > 100 µM | > 100 µM | > 100 µM | > 100 µM | > 100 µM | > 100 µM | > 100 µM | > 100 µM | > 100 µM | > 100 µM | > 100 µM | > 100 µM | > 100 µM | > 100 µM | > 100 µM
7 | CCOC(=O)C1=NN(c2ccccc2)C2=CC(C)=NN(C)C(=S)N21 | > 100 µM | > 100 µM | > 100 µM | > 100 µM | > 100 µM | > 100 µM | > 100 µM | > 100 µM | > 100 µM | > 100 µM | > 100 µM | > 100 µM | > 100 µM | > 100 µM | > 100 µM | > 100 µM
8 | Cc1cc(-c2nc3cc(O)ccc3s2)ccc1N | > 100 µM | 67.3 µM | 74.7 µM | 49.3 µM | > 100 µM | 60.1 µM | 48 µM | > 100 µM | 75.5 µM | > 100 µM | > 100 µM | > 100 µM | > 100 µM | > 100 µM | > 100 µM | > 100 µM
9 | O=[N+]([O-])c1ccc(NC(=S)Nc2ccccn2)cc1 | > 100 µM | 99.4 µM | > 100 µM | 55.5 µM | > 100 µM | > 85.6 µM | > 100 µM | > 100 µM | > 100 µM | > 100 µM | > 100 µM | > 100 µM | 63 µM | > 100 µM | > 100 µM | > 93.2 µM
10 | CCN1C[C@]2(C)CC[C@H](OCc3ccccc3)C34C5C[C@@H]6CC[C@](O)(C(C[C@@H]32)C14)C5[C@H]6OCc1ccccc1 (stereo partly drawn) | > 100 µM | > 100 µM | > 100 µM | > 100 µM | > 100 µM | > 100 µM | > 100 µM | > 100 µM | > 100 µM | > 100 µM | > 100 µM | > 100 µM | > 100 µM | > 100 µM | > 100 µM | > 100 µM
11 | COC(=O)/C=C(/C(=O)OC)c1c(C)cc2c(C)cc(C)cc(C)c1-2 | 5.16 µM | 38.3 µM | > 100 µM | 26.7 µM | > 100 µM | > 95.3 µM | 23.5 µM | 98.6 µM | > 100 µM | > 30.5 µM | > 100 µM | > 57.8 µM | 51.1 µM | 15.3 µM | > 100 µM | > 83.3 µM
12 | COc1cc(-c2oc(C=Nc3ccccc3)c([N+](=O)[O-])c2-c2ccc(O)c(OC)c2)ccc1O | > 85.7 µM | > 100 µM | 32 µM | 42.9 µM | 80.1 µM | > 73.9 µM | > 79.5 µM | > 64.5 µM | 68.7 µM | > 85.9 µM | 9.8 µM | > 100 µM | > 100 µM | > 95.7 µM | > 100 µM | 39.5 µM
13 | Cc1cc(N)ccc1C=O | > 100 µM | > 100 µM | > 100 µM | > 100 µM | > 100 µM | > 100 µM | > 100 µM | > 100 µM | > 100 µM | > 100 µM | > 100 µM | > 100 µM | > 100 µM | > 100 µM | > 100 µM | > 100 µM
